PubChem BioAssay AID330 (DTP/NCI, 2004)
Values joined by “and” are separate entries in the source; they are usually repeats but may differ in a detail not shown here. Equal entries are not always repeated. Toxic doses and inconclusive results are not listed. The calls were made as follows: active = survival T/C of 150% or more; inactive = T/C below 125% in these data.

Test system: P388 leukemia ip, CD2F1 mice, survival T/C
Test: NCI In Vivo Anticancer Drug Screen. Data for tumor model P388 Leukemia (intraperitoneal) in CD2F1 (CDF1) mice
Details: endpoint: median survival time, higher = longer survival
Summary of the method: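 Mice carrying the transplanted tumor received test compound or vehicle. Survival was recorded in each group, and the value is the treated-group measurement divided by that of the vehicle-treated control group.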

[1] = dose: 15.0 mg/kg/injection, schedule: Q01DX005 (ip), vehicle: saline with Tween-80
[2] = dose: 30.0 mg/kg/injection, schedule: Q01DX005 (ip), vehicle: saline with Tween-80
[3] = dose: 60.0 mg/kg/injection, schedule: Q01DX005 (ip), vehicle: saline with Tween-80
[4] = dose: 120.0 mg/kg/injection, schedule: Q01DX005 (ip), vehicle: saline with Tween-80
[5] = dose: 240.0 mg/kg/injection, schedule: Q01DX005 (ip), vehicle: saline with Tween-80
[6] = dose: 7.5 mg/kg/injection, schedule: Q01DX005 (ip), vehicle: saline with Tween-80
[7] = dose: 25.0 mg/kg/injection, schedule: Q01DX009 (ip), vehicle: Klucel (hydroxypropylcellulose) (HPC)
[8] = dose: 100.0 mg/kg/injection, schedule: Q01DX009 (ip), vehicle: saline
[9] = dose: 200.0 mg/kg/injection, schedule: Q01DX009 (ip), vehicle: saline
[10] = dose: 400.0 mg/kg/injection, schedule: Q01DX009 (ip), vehicle: saline
[11] = dose: 50.0 mg/kg/injection, schedule: Q01DX005 (ip), vehicle: saline with Tween-80
[12] = dose: 100.0 mg/kg/injection, schedule: Q01DX005 (ip), vehicle: saline with Tween-80
[13] = dose: 200.0 mg/kg/injection, schedule: Q01DX005 (ip), vehicle: saline with Tween-80
[14] = dose: 100.0 mg/kg/injection, schedule: Q04DX003 (ip), vehicle: Klucel (hydroxypropylcellulose) (HPC)

Measured: T/C

CCOC(=O)c1cc(/C=C/c2cccc(Cl)c2)on1
inactive: [1] 93 % of control | [2] 100 % of control and 90 % of control | [3] 90 % of control | [4] 93 % of control | [5] 95 % of control

c1ccc(Nc2ccc(CN3CCCCC3)cc2)cc1
inactive: dose: 60.0 mg/kg/injection, schedule: Q01DX005 (ip), vehicle: Klucel (hydroxypropylcellulose) (HPC) 93 % of control | dose: 120.0 mg/kg/injection, schedule: Q01DX005 (ip), vehicle: Klucel (hydroxypropylcellulose) (HPC) 99 % of control | dose: 240.0 mg/kg/injection, schedule: Q01DX005 (ip), vehicle: Klucel (hydroxypropylcellulose) (HPC) 87 % of control

O=C1c2ccc(-c3ccccc3)cc2C(=O)c2cc3c(cc21)OCO3
inactive: [6] 110 % of control | [1] 100 % of control | [2] 92 % of control

Cc1cn(C2CC(O)C(Cn3ccc4ccccc43)O2)c(=O)[nH]c1=O (centres undefined)
inactive: dose: 1.56 mg/kg/injection, schedule: Q01DX009 (ip), vehicle: Klucel (hydroxypropylcellulose) (HPC) 103 % of control | dose: 3.13 mg/kg/injection, schedule: Q01DX009 (ip), vehicle: Klucel (hydroxypropylcellulose) (HPC) 99 % of control | dose: 6.25 mg/kg/injection, schedule: Q01DX009 (ip), vehicle: Klucel (hydroxypropylcellulose) (HPC) 99 % of control | dose: 12.5 mg/kg/injection, schedule: Q01DX009 (ip), vehicle: Klucel (hydroxypropylcellulose) (HPC) 99 % of control | [7] 97 % of control

COc1c(C)n(C2OC(CO)C(O)C2O)ccc1=O (centres undefined)
inactive: dose: 50.0 mg/kg/injection, schedule: Q01DX009 (ip), vehicle: saline 104 % of control | [8] 100 % of control | [9] 103 % of control | [10] 98 % of control

Cc1n[nH]c(=S)nc1C
inactive: dose: 12.5 mg/kg/injection, schedule: Q04DX003 (ip), vehicle: saline with Tween-80 100 % of control | dose: 25.0 mg/kg/injection, schedule: Q04DX003 (ip), vehicle: saline with Tween-80 93 % of control | dose: 50.0 mg/kg/injection, schedule: Q04DX003 (ip), vehicle: saline with Tween-80 100 % of control | dose: 100.0 mg/kg/injection, schedule: Q04DX003 (ip), vehicle: saline with Tween-80 95 % of control

CC(C)(Br)C(=O)/C=C/c1ccc(Cl)cc1
inactive: [3] 108 % of control | [4] 104 % of control | [5] 114 % of control

N.N.N.N.N.N.[Cl-].[Pt]
inactive: dose: 12.5 mg/kg/injection, schedule: Q01DX009 (ip), vehicle: saline 92 % of control | dose: 25.0 mg/kg/injection, schedule: Q01DX009 (ip), vehicle: saline 97 % of control

Cc1cccc(=O)n1CCC#N
inactive: [8] 95 % of control | [9] 100 % of control | [10] 100 % of control

CC(=C\C1=CC(C)(C)CCC1(C)C)/C=C(C)/C=C/C=[N+](\[O-])C1C(C2COC(C)(C)O2)OC2OC(C)(C)OC21 (centres undefined)
inactive: dose: 12.5 mg/kg/injection, schedule: Q01DX005 (ip), vehicle: DMSO 103 % of control | dose: 25.0 mg/kg/injection, schedule: Q01DX005 (ip), vehicle: DMSO 119 % of control | dose: 50.0 mg/kg/injection, schedule: Q01DX005 (ip), vehicle: DMSO 100 % of control and 113 % of control | dose: 100.0 mg/kg/injection, schedule: Q01DX005 (ip), vehicle: DMSO 106 % of control | dose: 200.0 mg/kg/injection, schedule: Q01DX005 (ip), vehicle: DMSO 103 % of control

CC(=O)[C-](Cl)C(C)=O.CC(=O)[C-](Cl)C(C)=O.CC(=O)[C-](Cl)C(C)=O.[Ru+3]
inactive: [3] 111 % of control | [4] 109 % of control | [5] 98 % of control

COc1ccc(Cl)c(C)c1C(=O)OC1CC(OC2C(O)CC(OC3CCCC4C3C=CC3CCCC/C=C/C5C=C(C(=O)O)C(C)CC56OC(=O)C(=C6O)OC(=O)C34C)OC2C)OC(C)C1O (centres undefined)
inactive: [7] 103 % of control | dose: 50.0 mg/kg/injection, schedule: Q01DX009 (ip), vehicle: Klucel (hydroxypropylcellulose) (HPC) 97 % of control | dose: 100.0 mg/kg/injection, schedule: Q01DX009 (ip), vehicle: Klucel (hydroxypropylcellulose) (HPC) 89 % of control

COc1ccc(C2=NC(C)(C)CO2)cc1C
inactive: [11] 103 % of control | [12] 103 % of control | [13] 94 % of control

COc1cc2c(cc1OC)C1CC(=O)C(C3(O)C(=O)Nc4ccccc43)CN1CC2 (centres undefined)
inactive: [14] 99 % of control | dose: 200.0 mg/kg/injection, schedule: Q04DX003 (ip), vehicle: Klucel (hydroxypropylcellulose) (HPC) 99 % of control | dose: 400.0 mg/kg/injection, schedule: Q04DX003 (ip), vehicle: Klucel (hydroxypropylcellulose) (HPC) 112 % of control

CCOC(=O)CNC(=O)OCCS(=O)CCOC(=O)NCC(=O)OCC
inactive: dose: 100.0 mg/kg/injection, schedule: Q01DX001 (ip), vehicle: saline 98 % of control | dose: 200.0 mg/kg/injection, schedule: Q01DX001 (ip), vehicle: saline 93 % of control | dose: 400.0 mg/kg/injection, schedule: Q01DX001 (ip), vehicle: saline 101 % of control

COc1cc2c(cc1OC)C13CCN4CC5=CCOC6CC(=O)N2C1C6C5CC43 (centres undefined)
inactive: [6] 102 % of control | dose: 12.5 mg/kg/injection, schedule: Q01DX009 (ip), vehicle: saline with Tween-80 100 % of control | [1] 97 % of control | dose: 25.0 mg/kg/injection, schedule: Q01DX009 (ip), vehicle: saline with Tween-80 100 % of control | dose: 25.0 mg/kg/injection, schedule: Q04DX003 (ip), vehicle: saline sonified 100 % of control | [2] 100 % of control | dose: 50.0 mg/kg/injection, schedule: Q01DX009 (ip), vehicle: saline with Tween-80 100 % of control | dose: 50.0 mg/kg/injection, schedule: Q04DX003 (ip), vehicle: saline sonified 95 % of control | [3] 93 % of control

S=C(Nc1ccc(N=Nc2ccccc2)cc1)SCc1ccccc1
inactive: dose: 100.0 mg/kg/injection, schedule: Q04DX003 (ip), vehicle: saline 98 % of control | dose: 200.0 mg/kg/injection, schedule: Q04DX003 (ip), vehicle: saline 92 % of control | dose: 400.0 mg/kg/injection, schedule: Q04DX003 (ip), vehicle: saline 91 % of control

O=C1c2ccccc2-c2cc(Br)c(N=Cc3c[nH]c4ccccc34)cc21
inactive: [11] 105 % of control | [12] 95 % of control | [13] 89 % of control

Cc1nc2c(N)cc(Cl)cc2[nH]1
inactive: dose: 50.0 mg/kg/injection, schedule: Q01DX005 (ip), vehicle: saline + Tween-80 + alcohol 101 % of control | [11] 103 % of control | dose: 100.0 mg/kg/injection, schedule: Q01DX005 (ip), vehicle: saline + Tween-80 + alcohol 110 % of control | [12] 113 % of control | [13] 120 % of control

CC1(C)CC(C#N)CC(C)(C)N1O
inactive: [14] 100 % of control

CCCCC1CCC(=O)NC1=O (centres undefined)
inactive: [3] 107 % of control | [4] 103 % of control | [5] 107 % of control

CC(C)NC(=O)c1ccccc1Sc1ccccc1CN(C)C(C)C
inactive: dose: 25.0 mg/kg/injection, schedule: Q01DX001 (ip), vehicle: saline with Tween-80 99 % of control | dose: 50.0 mg/kg/injection, schedule: Q01DX001 (ip), vehicle: saline with Tween-80 95 % of control | dose: 100.0 mg/kg/injection, schedule: Q01DX001 (ip), vehicle: saline with Tween-80 98 % of control and 102 % of control
